# Test system: OVCAR-5 complex spheroids, viability
# Experiment: Anticancer human tumor OVCAR-5 cell line growth inhibition;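 also: spheroids exposed to agents for seven days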;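 as to viability, T/C: 100% = DMSO vehicle control wells viability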
# Conditions: for IC50: curve of first compound; for viability, T/C: stronger effect = lower value
# Summary of the method: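 Multicellular complex spheroids of tumor cells with human endothelial cells (HUVEC) and mesenchymal stem cells; the LSD1 inhibitor iadademstat was combined with standard-of-care or investigational agents. Top concentration at or near clinical Cmax, half-log dilutions; final DMSO ≤0.25%.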
compound,measurement,setting,value
Nc1ccn(C2OC(CO)C(O)C2(F)F)c(=O)n1 (stereo not given) + NC1CCC(NC2CC2c2ccccc2)CC1,IC50,second compound 0.1 µM,< 0.000949 µM
same,IC50,second compound 0.316 µM,< 0.000949 µM
same,IC50,second compound 1 µM,< 0.000949 µM
same,IC50,second compound 3.16 µM,< 0.000949 µM
same,IC50,second compound 10 µM,< 0.000949 µM
same,"viability, T/C","second compound 0.1 µM, first compound 0.000949 µM",27.8%
same,"viability, T/C","second compound 0.1 µM, first compound 0.003 µM",29%
same,"viability, T/C","second compound 0.1 µM, first compound 0.00949 µM",30.3%
same,"viability, T/C","second compound 0.1 µM, first compound 0.03 µM",31.4%
same,"viability, T/C","second compound 0.1 µM, first compound 0.0949 µM",30.7%
same,"viability, T/C","second compound 0.1 µM, first compound 0.3 µM",28.6%
same,"viability, T/C","second compound 0.316 µM, first compound 0.000949 µM",29.5%
same,"viability, T/C","second compound 0.316 µM, first compound 0.003 µM",30.3%
same,"viability, T/C","second compound 0.316 µM, first compound 0.00949 µM",31%
same,"viability, T/C","second compound 0.316 µM, first compound 0.03 µM",32.4%
same,"viability, T/C","second compound 0.316 µM, first compound 0.0949 µM",30.8%
same,"viability, T/C","second compound 0.316 µM, first compound 0.3 µM",30.6%
same,"viability, T/C","second compound 1 µM, first compound 0.000949 µM",32.8%
same,"viability, T/C","second compound 1 µM, first compound 0.003 µM",33.5%
same,"viability, T/C","second compound 1 µM, first compound 0.00949 µM",34.3%
same,"viability, T/C","second compound 1 µM, first compound 0.03 µM",33.2%
same,"viability, T/C","second compound 1 µM, first compound 0.0949 µM",32.7%
same,"viability, T/C","second compound 1 µM, first compound 0.3 µM",31.2%
same,"viability, T/C","second compound 3.16 µM, first compound 0.000949 µM",32.8%
same,"viability, T/C","second compound 3.16 µM, first compound 0.003 µM",34.4%
same,"viability, T/C","second compound 3.16 µM, first compound 0.00949 µM",35.5%
same,"viability, T/C","second compound 3.16 µM, first compound 0.03 µM",36.3%
same,"viability, T/C","second compound 3.16 µM, first compound 0.0949 µM",33.7%
same,"viability, T/C","second compound 3.16 µM, first compound 0.3 µM",31.9%
same,"viability, T/C","second compound 10 µM, first compound 0.000949 µM",33.3%
same,"viability, T/C","second compound 10 µM, first compound 0.003 µM",34.9%
same,"viability, T/C","second compound 10 µM, first compound 0.00949 µM",36.8%
same,"viability, T/C","second compound 10 µM, first compound 0.03 µM",34.6%
same,"viability, T/C","second compound 10 µM, first compound 0.0949 µM",34.9%
same,"viability, T/C","second compound 10 µM, first compound 0.3 µM",33.1%
O=C(c1cc(Cc2n[nH]c(=O)c3ccccc23)ccc1F)N1CCN(C(=O)C2CC2)CC1 + NC1CCC(NC2CC2c2ccccc2)CC1,IC50,second compound 0.1 µM,> 10 µM
same,IC50,second compound 0.316 µM,> 10 µM
same,IC50,second compound 1 µM,> 10 µM
same,IC50,second compound 3.16 µM,> 10 µM
same,IC50,second compound 10 µM,> 10 µM
same,"viability, T/C","second compound 0.1 µM, first compound 0.0316 µM",110%
same,"viability, T/C","second compound 0.1 µM, first compound 0.1 µM",116%
same,"viability, T/C","second compound 0.1 µM, first compound 0.316 µM",104%
same,"viability, T/C","second compound 0.1 µM, first compound 1 µM",102%
same,"viability, T/C","second compound 0.1 µM, first compound 3.16 µM",92.9%
same,"viability, T/C","second compound 0.1 µM, first compound 10 µM",90.5%
same,"viability, T/C","second compound 0.316 µM, first compound 0.0316 µM",101%
same,"viability, T/C","second compound 0.316 µM, first compound 0.1 µM",105%
same,"viability, T/C","second compound 0.316 µM, first compound 0.316 µM",105%
same,"viability, T/C","second compound 0.316 µM, first compound 1 µM",101%
same,"viability, T/C","second compound 0.316 µM, first compound 3.16 µM",98.2%
same,"viability, T/C","second compound 0.316 µM, first compound 10 µM",89.7%
same,"viability, T/C","second compound 1 µM, first compound 0.0316 µM",103%
same,"viability, T/C","second compound 1 µM, first compound 0.1 µM",103%
same,"viability, T/C","second compound 1 µM, first compound 0.316 µM",106%
same,"viability, T/C","second compound 1 µM, first compound 1 µM",88%
same,"viability, T/C","second compound 1 µM, first compound 3.16 µM",95.3%
same,"viability, T/C","second compound 1 µM, first compound 10 µM",82%
same,"viability, T/C","second compound 3.16 µM, first compound 0.0316 µM",95.6%
same,"viability, T/C","second compound 3.16 µM, first compound 0.1 µM",101%
same,"viability, T/C","second compound 3.16 µM, first compound 0.316 µM",93%
same,"viability, T/C","second compound 3.16 µM, first compound 1 µM",100%
same,"viability, T/C","second compound 3.16 µM, first compound 3.16 µM",88.5%
same,"viability, T/C","second compound 3.16 µM, first compound 10 µM",74.2%
same,"viability, T/C","second compound 10 µM, first compound 0.0316 µM",92.4%
same,"viability, T/C","second compound 10 µM, first compound 0.1 µM",97%
same,"viability, T/C","second compound 10 µM, first compound 0.316 µM",96.3%
same,"viability, T/C","second compound 10 µM, first compound 1 µM",83.2%
same,"viability, T/C","second compound 10 µM, first compound 3.16 µM",79%
same,"viability, T/C","second compound 10 µM, first compound 10 µM",61.1%

# Reference: PubChem BioAssay AID1918956 (Molecular Pharmacology Branch, DTP, NCI, 2023)
